The text below walks through data of US7928140B2, “Benzothiazole PI3 kinase modulators for cancer treatment” (Amgen Inc., priority 2007, dated 2011).

Assay [1] deals with T1, PI3K α (Homo sapiens, UniProt P42336).
T1 construct: Full length p110 subunits of PI3K α, β and δ, N-terminally labeled with polyHis tag; polyHis (N); made in house; host or cells: Sf9 insect cells (baculovirus)
The assay can be described thus: In vitro PI3 kinase enzyme assay (alpha), ATP loss, bioluminescence.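 Also: purified p110α/p85 heterodimer acting on PtdIns(4,5)P2 at room temperature, remaining ATP read by luminescence, inhibition scaled between compound-free wells with and without enzyme.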 The following applies: read-out: PI3Kα ATP loss IC50. Format: biochemical.

For assay [2], the target named is T2, PI3K β (Homo sapiens, UniProt P42338).
T2 construct: Full length p110 subunits of PI3K α, β and δ, N-terminally labeled with polyHis tag; polyHis (N); made in house; host or cells: Sf9 insect cells (baculovirus)
T2 sequence (P42338 whole entry): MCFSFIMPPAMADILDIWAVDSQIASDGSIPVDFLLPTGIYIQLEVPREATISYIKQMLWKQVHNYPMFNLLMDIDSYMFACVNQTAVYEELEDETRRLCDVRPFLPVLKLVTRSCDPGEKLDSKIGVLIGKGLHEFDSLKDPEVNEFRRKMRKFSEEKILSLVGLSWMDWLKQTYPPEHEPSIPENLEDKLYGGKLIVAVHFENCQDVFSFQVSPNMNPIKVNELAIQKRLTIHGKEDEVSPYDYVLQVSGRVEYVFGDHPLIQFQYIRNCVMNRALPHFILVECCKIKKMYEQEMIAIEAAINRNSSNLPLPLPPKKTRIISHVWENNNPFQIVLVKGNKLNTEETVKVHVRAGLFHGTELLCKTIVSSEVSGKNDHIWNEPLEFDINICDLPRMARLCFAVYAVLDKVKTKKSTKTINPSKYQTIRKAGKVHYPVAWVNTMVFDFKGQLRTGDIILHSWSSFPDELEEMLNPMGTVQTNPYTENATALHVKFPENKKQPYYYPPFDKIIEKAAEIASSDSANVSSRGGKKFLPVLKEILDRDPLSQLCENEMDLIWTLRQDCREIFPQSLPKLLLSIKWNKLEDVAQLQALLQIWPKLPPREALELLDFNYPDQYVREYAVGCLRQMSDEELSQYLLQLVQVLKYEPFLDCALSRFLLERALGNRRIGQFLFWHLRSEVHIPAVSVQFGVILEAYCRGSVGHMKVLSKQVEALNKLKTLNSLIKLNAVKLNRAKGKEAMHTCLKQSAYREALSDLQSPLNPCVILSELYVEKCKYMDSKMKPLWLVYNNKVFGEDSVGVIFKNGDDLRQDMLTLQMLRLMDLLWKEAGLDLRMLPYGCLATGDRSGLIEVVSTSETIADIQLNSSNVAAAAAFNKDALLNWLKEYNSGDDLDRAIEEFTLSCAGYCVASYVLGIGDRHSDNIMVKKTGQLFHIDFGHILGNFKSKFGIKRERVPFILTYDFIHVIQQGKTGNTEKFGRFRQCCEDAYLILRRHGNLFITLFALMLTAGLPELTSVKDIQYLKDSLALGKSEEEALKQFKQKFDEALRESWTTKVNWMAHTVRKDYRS
T2 sequence (P27986 whole entry partner): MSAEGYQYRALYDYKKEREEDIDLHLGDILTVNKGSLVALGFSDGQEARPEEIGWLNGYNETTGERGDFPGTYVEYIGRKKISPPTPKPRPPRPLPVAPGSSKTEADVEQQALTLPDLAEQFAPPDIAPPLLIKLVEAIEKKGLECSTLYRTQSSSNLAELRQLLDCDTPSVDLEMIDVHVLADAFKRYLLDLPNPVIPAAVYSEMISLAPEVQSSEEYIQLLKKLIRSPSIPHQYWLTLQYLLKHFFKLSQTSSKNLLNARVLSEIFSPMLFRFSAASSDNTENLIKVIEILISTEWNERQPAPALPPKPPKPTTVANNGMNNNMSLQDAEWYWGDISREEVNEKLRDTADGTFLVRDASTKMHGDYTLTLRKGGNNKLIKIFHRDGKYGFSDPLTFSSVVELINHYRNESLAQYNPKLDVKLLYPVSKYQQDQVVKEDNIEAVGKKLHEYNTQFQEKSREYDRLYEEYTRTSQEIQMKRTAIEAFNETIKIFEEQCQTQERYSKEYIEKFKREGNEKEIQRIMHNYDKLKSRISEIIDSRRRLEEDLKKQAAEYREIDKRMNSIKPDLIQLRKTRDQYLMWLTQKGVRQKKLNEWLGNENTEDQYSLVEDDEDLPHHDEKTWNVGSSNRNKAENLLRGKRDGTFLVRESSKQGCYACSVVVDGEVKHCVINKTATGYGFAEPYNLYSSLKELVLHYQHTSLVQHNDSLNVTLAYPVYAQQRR
Put plainly: In vitro PI3 kinase enzyme assay (beta), ATP loss, bioluminescence.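 Also: purified p110β/p85 heterodimer with PtdIns(4,5)P2 as acceptor, incubated at room temperature, leftover ATP read by luminescence, inhibition scaled to compound-free wells with and without enzyme.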 Format: biochemical. Conditions: read-out: PI3Kβ ATP loss IC50.

Assay [3] relates to phosphorylation of Serine 473 in Akt, HCT 116 human colon carcinoma cells. The assay can be described thus: Cell-based phospho-AKT Ser473 assay (MSD sandwich immunoassay, IGF-1 stimulated). The following applies: Homo sapiens. The protocol:
This assay determines the ability of test compounds to inhibit the phosphorylation of […] in Akt using a MSD based sandwich immunoassay (Meso Scale Detection, catalogue # N411CAB-1). […] Prior to the assay cells were detached from the culture flask with trypsin, and re-suspended in complete media to give a final concentration of 1.6×10^5 cells per ml. Aliquots (100 μl) of the HCT116 cell suspension were seeded into each well of a 96 well tissue culture plate (Corning Incorporated COSTAR, catalogue#3595) to give a final density of 16,000 cells per well. Cells were then incubated overnight at 37° C. The following day the cells were treated with serially diluted test compounds and incubated for 2 hours at 37° C. […] As a maximum response control, wells contained 0.5% DMSO in place of test compound. The plates were mixed at 700 rpm for 2 min to ensure even distribution of the test compound and incubated for 2 hours at 37° C. Cells were then stimulated with insulin-like growth factor 1 (Sigma, product #13769) at final concentration of 100 ng/ml for 15 minutes at 37° C. The media was then removed and the cells treated with 80 μl cell-lysis buffer (MSD) containing a cocktail of protease and phosphatase inhibitors for one hour at 4° C. […] The detection antibody was removed and plates were then washed four times with 200 μl per well of Tris wash buffer. An aliquot of 150 μl of diluted MSD read buffer was then applied to each well, and the electrochemiluminescent signal was measured using a MSD SECTORTM plate reader. This instrument measures the intensity of emitted light to determine a quantitative measure of phosphorylated Akt in each well. The dose-response data obtained with each compound were analyzed and the IC50 inhibition of Akt phosphorylation at Ser473 calculated.

Setting [4] is: HCT-116, HCT 116 cells, read-out: HCT 116 pAKT IC50.

pIC50: −log10 of the molar value. Where two headings read alike, the source gives them in different places.

T1 sequence (P42336 whole entry, species assumed): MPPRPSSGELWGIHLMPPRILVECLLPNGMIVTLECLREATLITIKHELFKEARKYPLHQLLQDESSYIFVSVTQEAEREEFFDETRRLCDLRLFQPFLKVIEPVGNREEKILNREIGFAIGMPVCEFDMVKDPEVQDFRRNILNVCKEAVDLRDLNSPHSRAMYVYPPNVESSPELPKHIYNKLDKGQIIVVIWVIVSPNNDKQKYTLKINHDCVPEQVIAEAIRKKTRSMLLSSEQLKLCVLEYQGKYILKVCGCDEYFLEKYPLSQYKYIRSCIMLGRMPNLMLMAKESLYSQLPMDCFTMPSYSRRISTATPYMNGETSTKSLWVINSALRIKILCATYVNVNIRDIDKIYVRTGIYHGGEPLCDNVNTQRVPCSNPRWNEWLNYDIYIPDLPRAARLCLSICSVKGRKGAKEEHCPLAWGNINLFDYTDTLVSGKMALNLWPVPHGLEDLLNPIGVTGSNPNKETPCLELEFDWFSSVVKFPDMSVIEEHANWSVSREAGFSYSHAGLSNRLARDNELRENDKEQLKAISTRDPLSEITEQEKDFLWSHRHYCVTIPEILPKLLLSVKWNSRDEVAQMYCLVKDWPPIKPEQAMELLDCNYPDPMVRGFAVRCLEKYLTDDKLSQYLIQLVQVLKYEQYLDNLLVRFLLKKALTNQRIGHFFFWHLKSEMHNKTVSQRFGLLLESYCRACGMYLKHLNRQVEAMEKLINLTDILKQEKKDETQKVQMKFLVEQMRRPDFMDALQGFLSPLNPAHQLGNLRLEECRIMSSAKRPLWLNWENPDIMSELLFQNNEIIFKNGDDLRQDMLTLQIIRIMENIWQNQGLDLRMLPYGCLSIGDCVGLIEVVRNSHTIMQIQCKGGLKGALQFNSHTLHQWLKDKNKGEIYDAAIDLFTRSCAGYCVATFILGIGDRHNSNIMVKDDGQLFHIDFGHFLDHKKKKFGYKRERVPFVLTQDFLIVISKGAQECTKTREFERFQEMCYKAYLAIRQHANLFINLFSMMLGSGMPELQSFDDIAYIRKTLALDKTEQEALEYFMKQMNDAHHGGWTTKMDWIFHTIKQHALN
T1 sequence (P27986 whole entry partner, species assumed): as the sequence (P27986 whole entry partner) above

One may read the pIC50 as the IC50 on a negative log10 scale, so that one unit is a factor of ten. With `CC(=O)Nc1nc2ccc(-c3cnc(Cl)c(NS(=O)(=O)N4CCCCC4)c3)cc2s1` [Example 316, N-(6-(6-chloro-5-((1-piperidinylsulfonyl)amino)-3-pyridinyl)-1,3-benzothiazol-2-yl)acetamide], the negative-log IC50 (pIC50) is 7.99 in assay [1], 7.45 in assay [2] and 8.15 in assay [3] (setting [4]).
With `CC(=O)Nc1nc2ccc(-c3cncc(N(C)S(=O)(=O)c4ccccc4)c3)cc2s1` [Example 224, N-(6-(5-(N-methylphenylsulfonamido)pyridin-3-yl)benzo[d]thiazol-2-yl)acetamide], the negative logarithm of the IC50 (pIC50) was 6.95 in assay [1], 5.83 in assay [2] and 6.84 in assay [3] (setting [4]).
For `COc1ccc(Sc2nccc(-c3ccc4nc(NC(C)=O)sc4c3)n2)c(C)c1` [Example 27, N-(6-(2-((4-methoxy-2-methylphenyl)sulfanyl)-4-pyrimidinyl)-1,3-benzothiazol-2-yl)acetamide], the negative-log IC50 (pIC50) is 7.40 in assay [1], 6.70 in assay [2] and 6.23 in assay [3] (setting [4]).
Regarding `CC(=O)Nc1nc2ccc(-c3cnc(Cl)c(NS(=O)(=O)c4cccc(OC(F)F)c4)c3)cc2s1` [Example 184, N-(6-(6-chloro-5-(3-(difluoromethoxy)phenylsulfonamido)pyridin-3-yl)benzo[d]thiazol-2-yl)acetamide], the negative-log IC50 (pIC50) in assay [1] is 8.14; in assay [2] it was 7.91; in assay [3] (setting [4]), 8.19.
For the compound `CNc1nc2ccc(-c3cnc(Cl)c(NS(=O)(=O)c4ccccc4F)c3)cc2s1` [Example 320, N-(2-chloro-5-(2-(methylamino)-1,3-benzothiazol-6-yl)-3-pyridinyl)-2-fluorobenzenesulfonamide], the pIC50 is 7.84 in assay [1], 7.21 in assay [2] and 6.35 in assay [3] (setting [4]).
On to `CC(C)(O)c1ccc(S(=O)(=O)Nc2cc(-c3ccc4nc(N)sc4c3)cnc2Cl)cc1` [Example 324, N-(5-(2-amino-1,3-benzothiazol-6-yl)-2-chloro-3-pyridinyl)-4-(1-hydroxy-1-methylethyl)benzenesulfonamide], for which the results for the pIC50 in assay [1], in assay [2] and in assay [3] (setting [4]) were 7.96, 7.77 and 6.82, respectively.
`CC(=O)Nc1nc2ccc(-c3ccnc(OCc4cccc(C)c4)n3)cc2s1` [Example 107, N-(6-(2-((3-methylbenzyl)oxy)-4-pyrimidinyl)-1,3-benzothiazol-2-yl)acetamide]: the pIC50 is 6.74 in assay [1], 6.08 in assay [2] and 5.92 in assay [3] (setting [4]).
Consider `Nc1nc2ccc(-c3cnc(Cl)c(NS(=O)(=O)c4ccc(F)cc4Cl)c3)cc2s1` [Example 309, N-(5-(2-amino-1,3-benzothiazol-6-yl)-2-chloro-3-pyridinyl)-2-chloro-4-fluorobenzenesulfonamide], for which the results for the pIC50 in assay [1], in assay [2] and in assay [3] (setting [4]) were 7.83, 7.43 and 6.30, respectively.
As for `CC(=O)Nc1nc2ccc(-c3ccnc(NCc4ccccc4)n3)cc2s1` [Example 49, N-(6-(2-(benzylamino)-4-pyrimidinyl)-1,3-benzothiazol-2-yl)acetamide], the negative-log IC50 (pIC50) was 6.38 in assay [1], 5.84 in assay [2] and 4.82 in assay [3] (setting [4]).
`CC(=O)Nc1nc2ccc(-c3ccnc(Sc4ccc(F)cc4)n3)cc2s1` [Example 26, N-(6-(2-((4-fluorophenyl)sulfanyl)-4-pyrimidinyl)-1,3-benzothiazol-2-yl)acetamide]: the figures for the negative-log IC50 (pIC50) in assay [1], in assay [2] and in assay [3] (setting [4]) were 6.91, 6.39 and 5.99, respectively.
On to `CC(=O)Nc1nc2ccc(-c3cncc(NS(=O)(=O)c4ccc(Cl)c(Cl)c4)c3)cc2s1` [Example 200, N-(6-(5-(3,4-dichlorophenylsulfonamido)pyridin-3-yl)benzo[d]thiazol-2-yl)acetamide], for which the negative-log IC50 (pIC50) was 8.25 in assay [1], 8.01 in assay [2] and 7.45 in assay [3] (setting [4]).
With `COc1ccc(-c2ccc3nc(NC(C)=O)sc3c2)cn1` [Example 242, N-(6-(6-methoxypyridin-3-yl)benzo[d]thiazol-2-yl)acetamide], the negative logarithm of the IC50 (pIC50) was 7.13 in assay [1], below 4.40 in assay [2] and 6.20 in assay [3] (setting [4]).
The matching figures for `CC(=O)Nc1nc2ccc(-c3cnc(Cl)c(O[C@H]4CCOC4)c3)cc2s1` [Example 236, N-(6-(6-chloro-5-((S)-tetrahydrofuran-3-yloxy)pyridin-3-yl)benzo[d]thiazol-2-yl)acetamide]: 6.82, 5.86 and 6.08.
For the compound `CC(=O)Nc1nc2ccc(-c3cnc(Cl)c(NS(=O)(=O)c4ccc(C(C)(C)O)cc4)c3)cc2s1` [Example 161, N-(6-(6-chloro-5-(4-(2-hydroxypropan-2-yl)phenylsulfonamido)pyridin-3-yl)benzo[d]thiazol-2-yl)acetamide], the negative-log IC50 (pIC50) is 7.86 in assay [1], 7.35 in assay [2] and 8.39 in assay [3] (setting [4]).
As for `CC(=O)Nc1nc2ccc(-c3cnc(Cl)c(OC(C)=O)c3)cc2s1` [Example 303, 5-(2-acetamidobenzo[d]thiazol-6-yl)-2-chloropyridin-3-yl acetate], the negative logarithm of the IC50 (pIC50) in assay [1] was 8.70; in assay [2], 7.91; in assay [3] (setting [4]) it was 8.77.
As to `CC(=O)Nc1nc2ccc(-c3cnc(Cl)c(NS(=O)(=O)c4ccsc4)c3)cc2s1` [Example 187, N-(6-(6-chloro-5-(thiophene-4-sulfonamido)pyridin-3-yl)benzo[d]thiazol-2-yl)acetamide], the values for the negative-log IC50 (pIC50) in assay [1], in assay [2] and in assay [3] (setting [4]) were 7.68, 7.38 and 7.43, respectively.
Consider `CN(C)c1cc(-c2ccc3nc(NC(=O)Oc4ccccc4)sc3c2)cnc1Cl` [Example 270, Phenyl 6-(6-chloro-5-(dimethylamino)pyridin-3-yl)benzo[d]thiazol-2-ylcarbamate], for which the pIC50 in assay [1] is 7.46; in assay [2], 5.61; in assay [3] (HCT-116, read-out: HCT 116 pAKT IC50), below 5.30.
Regarding `CC(=O)Nc1nc2ccc(-c3ccnc(Sc4ccccc4Cl)n3)cc2s1` [Example 125, N-(6-(2-((2-chlorophenyl)sulfanyl)-4-pyrimidinyl)-1,3-benzothiazol-2-yl)acetamide], the negative-log IC50 (pIC50) in assay [1] is 7.60; in assay [2], 6.37; in assay [3] (setting [4]), 6.26.
Consider `CNc1nc2ccc(-c3cnc(Cl)c(NS(=O)(=O)c4ccc(C(C)(C)NC(C)=O)cc4)c3)cc2s1` [Example 322, N-(1-(4-((2-chloro-5-(2-(methylamino)-1,3-benzothiazol-6-yl)-3-pyridinyl)sulfamoyl)phenyl)-1-methylethyl)acetamide], for which the negative logarithm of the IC50 (pIC50) in assay [1] is 7.97; in assay [2] it was 7.60; in assay [3] (setting [4]), 6.25.
As for `CC(=O)Nc1nc2ccc(-c3cncc(N(C)S(=O)(=O)c4ccc(F)c(F)c4)c3)cc2s1` [Example 222, N-(6-(5-(3,4-difluoro-N-methylphenylsulfonamido)pyridin-3-yl)benzo[d]thiazol-2-yl)acetamide], the negative logarithm of the IC50 (pIC50) was 6.42 in assay [1], 5.54 in assay [2] and 5.66 in assay [3] (setting [4]).
For `COc1ncc(-c2ccc3nc(NC(C)=O)sc3c2)cc1N(C)C` [Example 124, N-(6-(5-(dimethylamino)-6-methoxy-3-pyridinyl)-1,3-benzothiazol-2-yl)acetamide], in that order: 7.61, 7.04 and 7.18.
As to `CC(=O)Nc1nc2ccc(-c3cnc(Cl)c(NS(=O)(=O)c4ccc(OC(F)F)cc4)c3)cc2s1` [Example 182, N-(6-(6-chloro-5-(4-(difluoromethoxy)phenylsulfonamido)pyridin-3-yl)benzo[d]thiazol-2-yl)acetamide], the values for the negative-log IC50 (pIC50) in assay [1], in assay [2] and in assay [3] (setting [4]) were 8.22, 8.22 and 7.60, respectively.
Consider `CC(=O)Nc1nc2ccc(-c3cnc(C)c(NS(=O)(=O)c4ccccc4)c3)cc2s1` [Example 110, N-(6-(6-methyl-5-(phenylsulfonamido)pyridin-3-yl)benzo[d]thiazol-2-yl)acetamide], for which the pIC50 in assay [1] is 8.42; in assay [2], 7.97; in assay [3] (setting [4]), 7.50.
Turning to `CC(=O)Nc1nc2ccc(-c3ccnc(NS(=O)(=O)c4ccccc4)n3)cc2s1` [Example 77, N-(6-(2-(Phenylsulfonamido)pyrimidin-4-yl)benzo[d]thiazol-2-yl)acetamide], the pIC50 in assay [1] is 7.07; in assay [2], 6.27; in assay [3] (setting [4]) it was 5.63.
Turning to `COc1ccc(S(=O)(=O)Nc2nccc(-c3cc(F)c4nc(NC(C)=O)sc4c3)n2)cc1` [Example 131, N-(4-fluoro-6-(2-(((4-methoxyphenyl)sulfonyl)amino)-4-pyrimidinyl)-1,3-benzothiazol-2-yl)acetamide], the results for the negative-log IC50 (pIC50) in assay [1], in assay [2] and in assay [3] (setting [4]) were 7.38, 6.90 and 5.74, respectively.
